Results from patent publication US5399587A, “Biologically active compounds” (priority 1993, dated 1995).
Several values for one entry are separate records, joined by “and”; a condition that tells them apart may be missing. Equal values may be shown once.

Key:
[1] = target: large-conductance calcium-activated potassium (maxi-K) channels (Bos taurus, UniProt Q28204); test: Patch clamp recordings of maxi-K channel currents in excised inside-out membrane patches from cultured bovine aortic smooth muscle cells; type: biochemical; conditions: 10 μM
Experimental: Pipettes were typically filled with solutions containing (mM): 150 KCl, 10 Hepes (4-(2-hydroxyethyl)-1-piperazineethanesulfonic acid), 1 Mg, 0.01 Ca, and adjusted to pH 7.20 with 3.7 mM KOH. After forming a high resistance (>10^9 ohms) seal between the sarcolemmal membrane and the pipette, the pipette was withdrawn from the cell forming an excised inside-out membrane patch. […] An Axopatch 1C amplifier (Axon Instruments, Foster City, Calif.) with a CV-4 headstage was used to control the voltage and to measure the currents flowing across the membrane patch. The input to the headstage was connected to the pipette solution with a Ag/AgCl wire, and the amplifier ground was connected to the bath solution with a Ag/AgCl wire covered with a robe filled with agar dissolved in 0.2M KCl. Maxi-K channels were identified by their large single channel conductance (~250 pS) and sensitivity of channel open probability to membrane potential and intracellular calcium concentration.
Data was stored on a RACAL STORE 4DS FM tape recorder (Racal Recorders, Vienna, Va.) or on digital video tape using a video casette recorder after digitizing the signal with VR-10 (Instrutech Corp., Belmont N.Y.) PCM video encoder. The signal was also recorded on chart paper with a GOULD 2400S chart recorder (Gould Inc., Cleveland Ohio). For quantitative analysis, the data was played into a DEC 11-73 (Digital Equipment Corp., Maynard, Mass.) after digitization with a DT2782-8D1A analogue to digital converter (Data Translation Inc., Marlboro, Mass.), or played into a MAC IIx or QUADRA 700 computer (Apple Computers) after digitization with an ITC-16 interface (Instrutech Corp., Belmont, N.Y.).

[2] = target: T1, bovine aortic sarcolemma membrane vesicles ([^125 I]ChTX binding) (Bos taurus, UniProt Q28204); test: [^125 I]ChTX (Charybdotoxin) binding to bovine aortic sarcolemma membrane vesicles
T1 construct: bovine aortic sarcolemma membrane vesicles; from tissue; host or cells: bovine aorta (smooth muscle) sarcolemma membrane vesicles
Experimental: The interaction of [^125 I]ChTX (Charybdotoxin) with bovine aortic sarcolemma membrane vesicles was determined under conditions as described in Vazquez et al., 1989, J. Biol. Chem. 264, 20902-20909. Briefly, sarcolemma membrane vesicles were incubated in 12×75 polystyrene robes with ca. 25 pM [^125 I]ChTX (2200 Ci/mmol), in the absence or presence of test compound, in a media consisting of 20 mM NaCl, 20 mM Tris-HCl pH 7.4, 0.1% bovine serum albumin, 0.1% digitonin. Nonspecific binding was determined in the presence of 10 nM ChTX. Incubations were carried out at room temperature until ligand binding equilibrium is achieved at ca. 90 min. At the end of the incubation period, samples were diluted with 4 mL ice-cold 100 mM NaCl, 20 mM Hepes-Tris pH 7.4 and filtered through GF/C glass fiber filters that have been presoaked in 0.5% polyethylenimine. Filters were rinsed twice with 4 mL ice-cold quench solution. Radioactivity associated with filters was determined in a gamma counter. Specific binding data in the presence of each compound (difference between total binding and nonspecific binding) was assessed relative to an untreated control.

maxi-K channels = test: Maxi-K channel recordings in planar lipid bilayers with plasma membrane vesicles from bovine aortic smooth muscle; type: biochemical; conditions: 10 μM, lipid bilayer
Experimental: Planar lipid bilayers were formed from a solution of 1-palmitoyl-2-oleoylphosphatidylethanolamine (POPE) and 1-palmitoyloleoylphosphatidylcholine (POPC) in a 7/3 molar ratio dissolved in decane (50 mg/mL). This lipid solution was painted across a small hole (250 micron) separating two aqueous compartments and readily formed bilayers with capacitances of 200-250 pF. The solution on the side that the membranes were added (cis) contained (mM): 150 KCl, 10 Hepes, 0.01 Ca, 3.7 KOH, pH 7.20. The solution on the other side (trans) contained (mM): 25 KCl, 10 HEPES, 0.01 Ca, 3.7 KOH, pH 7.20. Plasma membrane vesicles purified from bovine aortic smooth muscle (Slaughter et al. 1989, Biochemistry 28, 3995-4002) were added to the cis side until channel incorporation occurred. After channel incorporation, the concentration of KCl on the trans side was increased to 150 mM to prevent further channel incorporation. The orientation of maxi-K channels after insertion into the bilayer was determined from the calcium and voltage sensitivity of the channel. […]
Data was stored on a RACAL STORE 4DS FM tape recorder (Racal Recorders, Vienna, Va.) or on digital video tape using a video casette recorder after digitizing the signal with VR-10 (Instrutech Corp., Belmont N.Y.) PCM video encoder. The signal was also recorded on chart paper with a GOULD 2400S chart recorder (Gould Inc., Cleveland Ohio). […]

[3] = excised inside-out patch, result in words
[4] = application to the intracellular side, excised inside-out patch

Chain of large-conductance calcium-activated potassium (maxi-K) channels (Q28204 whole entry): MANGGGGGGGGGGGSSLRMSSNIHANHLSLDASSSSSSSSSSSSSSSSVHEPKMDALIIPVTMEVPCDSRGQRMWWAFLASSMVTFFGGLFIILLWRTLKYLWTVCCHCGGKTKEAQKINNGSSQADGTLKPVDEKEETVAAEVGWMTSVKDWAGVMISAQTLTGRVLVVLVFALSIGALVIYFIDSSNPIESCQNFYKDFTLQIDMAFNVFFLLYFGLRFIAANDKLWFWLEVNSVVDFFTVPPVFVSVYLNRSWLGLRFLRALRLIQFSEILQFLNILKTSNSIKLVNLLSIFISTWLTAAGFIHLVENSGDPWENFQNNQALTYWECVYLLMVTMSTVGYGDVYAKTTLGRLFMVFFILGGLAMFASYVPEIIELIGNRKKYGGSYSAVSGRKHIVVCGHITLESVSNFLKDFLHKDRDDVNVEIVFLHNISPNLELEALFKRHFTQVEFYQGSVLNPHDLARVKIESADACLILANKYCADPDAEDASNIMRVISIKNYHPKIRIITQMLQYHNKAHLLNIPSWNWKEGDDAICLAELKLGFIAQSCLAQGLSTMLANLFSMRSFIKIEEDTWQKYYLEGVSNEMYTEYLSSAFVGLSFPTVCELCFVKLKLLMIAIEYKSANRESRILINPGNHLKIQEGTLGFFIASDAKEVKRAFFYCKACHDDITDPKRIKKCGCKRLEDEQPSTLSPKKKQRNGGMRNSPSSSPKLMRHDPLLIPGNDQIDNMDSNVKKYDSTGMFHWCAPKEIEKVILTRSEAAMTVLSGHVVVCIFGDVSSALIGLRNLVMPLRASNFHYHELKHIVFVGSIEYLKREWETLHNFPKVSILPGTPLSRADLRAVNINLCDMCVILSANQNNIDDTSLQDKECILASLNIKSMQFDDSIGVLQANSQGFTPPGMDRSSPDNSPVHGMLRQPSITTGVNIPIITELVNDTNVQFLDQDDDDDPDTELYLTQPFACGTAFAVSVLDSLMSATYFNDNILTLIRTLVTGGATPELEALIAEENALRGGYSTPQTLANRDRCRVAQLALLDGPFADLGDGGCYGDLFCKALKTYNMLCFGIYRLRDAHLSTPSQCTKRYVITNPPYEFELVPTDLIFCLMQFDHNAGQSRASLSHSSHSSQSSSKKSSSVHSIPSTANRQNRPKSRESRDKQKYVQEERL
Chain of large-conductance calcium-activated potassium (maxi-K) channels (Q28067 whole entry partner): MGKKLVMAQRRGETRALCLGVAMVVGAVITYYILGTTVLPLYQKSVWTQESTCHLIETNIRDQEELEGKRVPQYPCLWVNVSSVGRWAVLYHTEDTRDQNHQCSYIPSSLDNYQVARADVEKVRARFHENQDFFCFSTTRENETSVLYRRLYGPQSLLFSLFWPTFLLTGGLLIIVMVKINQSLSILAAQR
T1 sequence (Q28204 whole entry): as the sequence (Q28204 whole entry) above

SMILES | effect on channel open probability [1, 3] | IC50 [2] | inhibition of [^125 I]ChTX binding ([2]; result in words) | effect on channel open probability [1, 4] | also measured
CCCCCCCC/C=C\CCCCCCCC(=O)OCC1=CC[C@@]2(C)C[C@H](O)[C@@](O)(C(C)C)[C@@H]2CC1 [Compound A] | clear increases in channel open probability | 360 nM and ~360 nM | concentration-dependent inhibition |  | time over which increase in channel open probability developed ([1]; excised inside-out patch): 5 to 10 min; reversal of increase in channel open probability on washout ([1]; long (20-60 minutes) washout): slowly reversed after long (20-60 minutes) washout; increase in channel open probability (maxi-K channels; inside face of the channel): 1.4 fold; effect on channel open probability (maxi-K channels; outside face of the channel): did not increase channel open probability
CC1=CC[C@@]2(C)C[C@H](O)[C@@](O)(C(C)C)[C@@H]2CC1 [Compound B, reference compound] | no clear effect on channel open probability | 200 nM | concentration-dependent inhibition |  | 
CCCCC/C=C\C/C=C\CCCCCCCC(=O)O[C@H]1C[C@]2(C)CC=C(C)CC[C@H]2[C@]1(O)C(C)C [Compound C] |  |  |  | small decreases in channel open probability | effect on [^125 I]ChTX binding ([2]; concentrations up to 100 μM, tested at 1, 10 and 100 μM): no effect on binding
CCCCCCCC/C=C\CCCCCCCC(=O)O[C@H]1C[C@]2(C)CC=C(C)CC[C@H]2[C@]1(O)C(C)C [Compound D] |  |  |  | small decreases in channel open probability | remaining activity at 100 µM ([2]; 1.5 h, pH 7.4, read-out: [^125 I]ChTX binding, % of that under control conditions): 37%; inhibition of [^125 I]ChTX binding ([2]; at 100 μM, tested at 1, 10 and 100 μM): significant inhibition of binding
CC(C)[C@@]1(O)[C@@H]2CCC(CO)=CC[C@@]2(C)C[C@@H]1O [Compound E] |  |  |  | no observable effect on channel open probability | effect on toxin binding ([2]; concentrations from 1 nM to 100 μM): did not produce any significant effect on toxin binding
